Test results reported in US20240067677A1, “Interference Peptides As Inhibitors Of Interactions Related To Ampar Endocytosis” (priority 2020, published 2024).
Where a chain is given by its changes, count along the chain named. “Also recorded” adds a separate entry of the source. Square brackets hold non-standard residues; d marks the D form. Ends that are not written are not given here. pY = N[C@@H](Cc1ccc(OP(=O)(O)O)cc1)C(=O)O

Experiments:
[1] = target: T1, GST-GluA2-STEP32 C/S complex (Homo sapiens, UniProt P54829, C496S); experiment: GST-GluA2-STEP32 pulldown (SDS-PAGE / western blot); type: binding
T1 construct: made in house; host or cells: STEP32 C/S: E. coli BL21(DE3); GST-GluA2: E. coli BL21
T1 sequence (P54829 282-563 C496S): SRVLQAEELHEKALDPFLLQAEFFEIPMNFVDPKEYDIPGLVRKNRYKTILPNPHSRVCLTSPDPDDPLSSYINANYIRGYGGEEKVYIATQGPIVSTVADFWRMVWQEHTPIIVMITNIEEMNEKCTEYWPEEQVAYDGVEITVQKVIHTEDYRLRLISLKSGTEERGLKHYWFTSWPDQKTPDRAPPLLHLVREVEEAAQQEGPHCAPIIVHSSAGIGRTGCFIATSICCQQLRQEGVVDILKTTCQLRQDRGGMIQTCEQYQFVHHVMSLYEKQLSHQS
Protocol: Prior to binding and after contacting the beads with phosphorylated GST-GluA2, the beads were washed thoroughly with interaction buffer (25 mM HEPES, 150 mM NaCl, 1 mM MgCl2, 1% Triton™ X-100, 1 mM DTT, pH=7,5). Triton™ X-100 was used to avoid nonspecific binding and to minimize the risk of precipitation for any of the proteins. […] Beads were washed twice with wash buffer to remove excess STEP32 C/S. Results were analyzed using SDS-PAGE (FIG. 2A).

[2] = system: scopolamine (0.7 mg/kg)-treated rats; experiment: Radial arm-maze test, scopolamine-induced cognitive impairment; conditions: for number of working memory errors vs. scopolamine-alone treated rats: peptide 15 μM into dorsal hippocampus; for number of working memory errors vs. scopolamine-alone treated rats / number of reference memory errors vs. scopolamine-alone treated rats: Sco 0.7 mg/kg; for number of reference memory errors vs. scopolamine-alone treated rats: peptide 15 μM
Protocol: (§1) At the beginning of the experiment, there have been selected 30 adult male rats (Cantacuzino Institute™, Romania) having an average weight of 350 g (±10 g) and four months old. The animals were housed in the animal unit under controlled conditions of light (a 12-h cycle starting at 07:00 h) and temperature (22° C.). Food and water were provided ad libitum throughout the experiment. Rats were randomly divided into 6 groups (n=5 animals/group) as follows: Control group (sham-operated), Scopolamine (Sco) group (sham-operated, Sco: 0,7 mg/kg b.w., i.p., Sigma-Aldrich™, Darmstadt, Germany), and groups treated with TAT-p3Y, TAT-3Y, TAT-p3Ysh3, and TAT-pfin4 (15pIVI, GenScript™) received scopolamine. […] Scopolamine hydrobromide (Sco, 0.7 mg/kg) was administered 30 min before behavioral in vivo approaches.
(§2) All surgical procedures were conducted under aseptic conditions, under sodium pentobarbital (50 mg/kg b.w., i.p., Sigma-Aldrich™, Darmstadt, Germany) anesthesia. Rats were mounted in the stereotaxic apparatus with the nose oriented 11° below horizontal zero plane. Two plastic guide cannulas (Portex™, 0.9 mm outer diameter) were bilaterally implanted stereotaxically in the dorsal hippocampus according to the following coordinates: A/P=3.6 mm, M/L=3.1 mm and D/V=2.4 mm. The cannulas were positioned with dental cement (Adhesor™ SpofaDental™) and secured by three stainless steel screw implanted into the skull. After surgery, the rats were isolated in separate cages and protected with a large spectrum antibiotic. Animals were given two weeks to recover from surgery and were handled daily during this period.
As described before by Olton and Samuelson and Postu et al [63], using a radial arm maze test (RAM), the spatial memory was determined for one week.
The maze comprised eight arms marked from 1 to 8 (48 cm×12 cm), with a radial extension of 32 cm in diameter from the central area, and it had 50 mg food pellets at the end of arms 1, 2, 4, 5, and 7. Four days of habituation sessions were performed. Rats were instructed to move to the end of the arms and to eat the bait during 5 min sessions. After habituation, only one trial per day was granted to all rats. For working and reference memory tasks, each rat was individually placed in the center of the maze.

[3] = system: scopolamine (0.7 mg/kg)-treated rats; experiment: Elevated plus-maze test; conditions: for number of entries in the open arms vs. Sco-alone treated rats / percentage of the open arms time vs. scopolamine-alone treated rats: peptide 15 μM, Sco 0.7 mg/kg
Protocol: At the beginning of the experiment, there have been selected 30 adult male rats (Cantacuzino Institute™, Romania) having an average weight of 350 g (±10 g) and four months old. The animals were housed in the animal unit under controlled conditions of light (a 12-h cycle starting at 07:00 h) and temperature (22° C.). Food and water were provided ad libitum throughout the experiment. […] Scopolamine hydrobromide (Sco, 0.7 mg/kg) was administered 30 min before behavioral in vivo approaches.
as §2
Behavior in the elevated plus-maze test (E.P.M.) is utilized to assess exploration, anxiety and motor behavior. Each rat was placed in the center of the maze facing one closed arm. […] The percentages of time spent in the open arms were calculated using the formula:
(time spent in the open arms/time spent in all arms)×100. • Forced Swimming Test

[4] = system: scopolamine (0.7 mg/kg)-treated rats; experiment: Y-maze test, scopolamine-induced cognitive impairment; conditions: peptide 15 μM; Sco 0.7 mg/kg
Protocol: as §1, §2
Spontaneous alternation behavior was evaluated in a single-session Y-maze, as previously described by Jackson Postu et al [63]. In the present study, the Y-maze used was built of Plexiglas having the following dimensions: 25 cm high, 35 cm long, 10 cm wide for each arm, and a central area in an equilateral triangular shape. […] The percentage of the involuntary alternation was determined according to the formula:

[5] = system: scopolamine (0.7 mg/kg)-treated rats; experiment: Forced swimming test
Protocol: At the beginning of the experiment, there have been selected 30 adult male rats (Cantacuzino Institute™, Romania) having an average weight of 350 g (±10 g) and four months old. The animals were housed in the animal unit under controlled conditions of light (a 12-h cycle starting at 07:00 h) and temperature (22° C.). Food and water were provided ad libitum throughout the experiment. Rats were randomly divided into 6 groups (n=5 animals/group) as follows: Control group (sham-operated), Scopolamine (Sco) group (sham-operated, Sco: 0,7 mg/kg b.w., i.p., Sigma-Aldrich™, Darmstadt, Germany), and groups treated with TAT-p3Y, TAT-3Y, TAT-p3Ysh3, and TAT-pfin4 (15pIVI, GenScript™) received scopolamine. The doses of the peptides were chosen according to a previous report [60]. Scopolamine hydrobromide (Sco, 0.7 mg/kg) was administered 30 min before behavioral in vivo approaches. […]
The forced swimming test (F.S.T.) is used for assessing depressive-like responses [66]. The depressive-like response was assessed, basically using the same method described by Campos
et al. [67], but with modifications. […] During the test session, the following behavioral responses were recorded: (i) immobility (time spent floating with the minimal movements to keep the head above the water); and (ii) swimming (time spent with active swimming movements). • Statistical Analyses

[6] = target: T2, BRAG2-GluA2 complex (Homo sapiens, UniProt Q6DN90, E620K); experiment: BRAG2-GluA2 pulldown with GSH Sepharose-coupled GST-GluA2 (SDS-PAGE); type: binding
T2 construct: GST-GluA2: E. coli BL21
T2 sequence (Q6DN90 with tags, fused parts or gaps E620K): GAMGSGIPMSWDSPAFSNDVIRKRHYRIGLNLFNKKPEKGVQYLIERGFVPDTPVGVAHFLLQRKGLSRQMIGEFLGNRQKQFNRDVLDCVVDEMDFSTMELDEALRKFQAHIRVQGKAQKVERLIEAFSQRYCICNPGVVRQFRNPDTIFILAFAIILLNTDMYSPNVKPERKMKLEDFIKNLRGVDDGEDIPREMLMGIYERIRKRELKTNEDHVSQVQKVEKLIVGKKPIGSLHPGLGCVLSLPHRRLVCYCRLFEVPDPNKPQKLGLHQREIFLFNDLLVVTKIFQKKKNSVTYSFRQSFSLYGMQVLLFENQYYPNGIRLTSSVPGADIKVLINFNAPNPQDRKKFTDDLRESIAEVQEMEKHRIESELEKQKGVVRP
Protocol: A. SDS-PAGE gel of the species pulled down with GSH Sepharose-coupled GST-GluA2. On the first lane, only BRAG2 was present in the solution containing the beads. On lanes 2-4 the BRAG2 solution also contained 1 mM of different peptides. B. BRAG2 band intensities from A. normalized to the GS T-GluA2 band intensities.
Samples containing GST-GluA2 (150 μg) and BRAG2 (60 μg) were bound to Sepharose glutathione beads (20 μl). Prior to binding, the beads were washed thoroughly with interaction buffer (25 mM HEPES, 150 mM NaCl, 1 mM MgCl2, 1% Triton™ X-100, 1 mM DTT, pH=7.5). Triton™ X-100 was used to avoid nonspecific binding and to minimize the risk of protein precipitation. In a subsequent step, 3Y at different concentrations was added to the samples (1000 μM, 100 μM, 10 μM, 1 μM, 0.1 μM). A 2.5 mM solution (0.1 M PBS pH=7.4) was obtained. After incubating the samples for 90 minutes at 4 ° C. with stirring, the beads were washed with a buffer containing less Triton X-100 (25 mM HEPES, 150 mM NaCl, 1 mM MgCl2, 0.1% Triton™ X-100.1 mM DTT, pH=7.5). The species which remained trapped by the beads were analyzed by SDS-PAGE (FIG. 16).

[7] = target: T3, STEP32 WT (Homo sapiens, UniProt P54829); experiment: In vitro dephosphorylation of pY876 of full length GluA2 by STEP32 WT (western blot)
T3 sequence (P54829 282-563): T1 sequence (P54829 282-563 C496S) with S215C
Excerpt: GluA2-FL phosphorylated at Y876 site was immunoprecipitated from HEK293T cells overexpressing GluA2 and vSrc using anti-GluA2 antibodies and then submitted to in vitro dephosphorylation by purified STEP32 WT, in presence versus absence of TAT-phosphopeptides: TAT-p3Y, TAT-p3Y-sh3 and TAT-p-fin4. The dephosphorylation of the pY876 site of GluA2 FL was detected by western blotting using anti-pY876 antibodies and anti-GluA2 antibodies.
The results represent mean±SEM of three independent experiments.
Therefore, HEK293 cells were transfected with a pCMV-SPORT6-GRIA2 mammalian expression vector containing the cDNA of full length GluA2 (GluA2-FL). […] A sample consisting of immunoprecipitated GluA2 FL untreated with either STEP32 or peptides was also included into the study, as a control.

Substance | inhibition of formation of the GST-GluA2-STEP32 C/S complex [1] | number of working memory errors vs. scopolamine-alone treated rats [2] | number of reference memory errors vs. scopolamine-alone treated rats [2] | number of entries in the open arms vs. Sco-alone treated rats [3] | percentage of the open arms time vs. scopolamine-alone treated rats [3] | spontaneous alternation percentage / working memory vs. scopolamine alone [4] | further results
(TAT-)p3Y-sh3: p3Ysh-3 (EGYNVpY) N-terminally fused to the TAT cell-penetrating sequence (GRKKRRQRRRPQEGYNV[pY]) | significantly inhibit the interaction | significant reduction in the number of working memory errors | significant reduction in the number of reference memory errors | high number of entries in the open arms | high percentage of the open arms time | successfully countered the effect of scopolamine on working-memory | –
(TAT-)p3Y: p3Y N-terminally fused to the TAT cell-penetrating sequence GRKKRRQRRRPQ [reference compound] | significantly inhibit the interaction | significant reduction in the number of working memory errors | – | – | – | successfully countered the effect of scopolamine on working-memory | p, Sco vs. peptide, number of reference memory errors ([2]; 15 μM, Tukey's post hoc, n=5, FIG. 10): < 0.01; p, Sco vs. peptide, immobility time ([5]; 15 μM, Tukey's post hoc, n=5, FIG. 12): < 0.0001; immobility time ([5]; peptide 15 μM, Sco 0.7 mg/kg): significant decline of the immobility time
EGYNVY (Interference peptide capable of inhibiting the formation/disrupting the STEP-GluA2 complex or the GluA2-BRAG2 complex) [3Y-sh3, (uncoupled) novel 3Y-sh3 peptide, non-phosphorylated hexapeptide] | – | – | – | – | – | – | effect on the GST-GluA2-BRAG2 complex ([6]; 1 mM peptide (FIG. 17)): significant disrupting effect
ATYKEGYNVYG (not fully specified (residue 10)) [3Y, reference compound] | – | – | – | – | – | – | disruption of the BRAG2-GluA2 complex ([6]; 3Y in the range of concentrations 10 μM-1 mM): successfully disrupts the BRAG2-GluA2 complex; p, Sco vs. peptide, open arms time % ([3]; 15 μM, Tukey's post hoc, n=5, FIG. 13): < 0.001
(TAT-)p-fin 4: p-fin4 (EGYNVpYE) N-terminally fused to the TAT cell-penetrating sequence (GRKKRRQRRRPQEGYNV[pY]E) | strongest inhibitory effect; also recorded: significantly inhibit the interaction | significant reduction in the number of working memory errors | significant reduction in the number of reference memory errors | high number of entries in the open arms | high percentage of the open arms time | successfully countered the effect of scopolamine on working-memory | inhibition of pY876 GluA2-FL dephosphorylation by STEP32 WT ([7]; 0.1 mM and 1 mM peptide): highest inhibition of GluA2 dephosphorylation; P, no peptide sample vs. peptide + STEP32 WT sample, pY876 band intensity ([7]; 1 mM peptide, unpaired t-test with Welch's correction): < 0.05
